Results published in PMC5793070, “Bacillibactin and Bacillomycin Analogues with Cytotoxicities against Human Cancer Cell Lines from Marine Bacillus sp. PKU-MA00093 and PKU-MA00092” (Marine Drugs, 2018).
Where two headings read alike, the source gives them in different places. Numbered stars: 1 amine (or outer) side, 2 acyl side, 3 side chain; on linkers, the order of the positions; unused ones are H or OH. Square brackets hold non-standard residues; d marks the D form. Peptide text beside a SMILES is read from it. Hexadecanoyl(3R-amino) = CCCCCCCCCCCCC[C@H](CC(=O)[*:2])N[*:1]; X1 = CCC(C)CCCCCCCCCC[C@H](CC(=O)[*:2])N[*:1]; X3 = CC(C)CCCCCCCCCC[C@H](CC(=O)[*:2])N[*:1]

Experiments:
[1] = system: breast cancer cell line MCF7; assay: MTT cytotoxicity assay against MCF7
Protocol: (§1) Two human cancer cell lines, liver cancer cell line HepG2, and breast cancer cell line MCF7, were used in the assays.
(§2) HepG2 and MCF7 cell lines were purchased from Peking Union Medical College, Cell Bank (Beijing, China). In this study, the cells were grown in Dulbecco’s modified Eagle’s medium (Hyclone, Waltham, MA, USA), supplemented with 10% fetal bovine serum (FBS, PAN Biotech, Aidenbach, Germany), penicillin (100 U/mL), and streptomycin (100 µg/mL) in a humidified incubator containing 95% air and 5% CO2 at 37 °C. Cell viability was detected by MTT colorimetric assay. Briefly, the cells were treated with different concentrations of compounds (in DMSO stock) for 48 h, with taxol as the positive control. Then, culture supernatants were replaced with medium containing 0.5 mg/mL MTT for 4 h. The supernatant was removed and 100 μL of dimethyl sulfoxide was added. Absorbance was detected at 550 nm and cell viability was expressed as the mean percentage of the absorbance in treated vs. control cells. Different concentrations of compounds ranging from 0.1 to 40 µM were tested and each of the concentration was tested in parallel triplicate. Six concentration points in the slope region were used in the calculation of IC50 values. The IC50 values were calculated from the concentration–response curves that were generated by nonlinear regression with Graph Pad Prism 5 software (Graph Pad Software, Inc., San Diego, CA, USA).

[2] = system: liver cancer cell line HepG2; assay: MTT cytotoxicity assay against HepG2
Protocol: as §1, §2

[3] = system: human cancer cell line A498; settings: lipopeptide proposed as bacillomycin D only based on LC-MS analysis; result in words; cited from earlier work
Protocol: (§3) Compounds 1–10 were tested for their antitumor activities.

[4] = system: human cancer cell line A549; settings: lipopeptide proposed as bacillomycin D only based on LC-MS analysis; result in words; cited from earlier work
Protocol: as §3

[5] = system: human cancer cell line HCT-15; settings: lipopeptide proposed as bacillomycin D only based on LC-MS analysis; result in words; cited from earlier work
Protocol: as §3

CC(C)CCCCCCCCCC[C@@H]1CC(=O)N[C@@H](CC(N)=O)C(=O)N[C@H](Cc2ccc(O)cc2)C(=O)N[C@H](CC(N)=O)C(=O)N2CCC[C@H]2C(=O)N[C@@H](CCC(=O)O)C(=O)N[C@H](CO)C(=O)N[C@@H]([C@@H](C)O)C(=O)N1 [Compound 8, iso-C16 bacillomycin D] (cyclo(E[dS]T[X3]N[dY][dN]P))
IC50 ([1]; human, 48 h): 2.9 ± 0.1 µM | IC50 ([2]; human, 48 h): 5.1 ± 0.2 µM

CCC(C)CCCCCCCCCC[C@@H]1CC(=O)N[C@@H](CC(N)=O)C(=O)N[C@H](Cc2ccc(O)cc2)C(=O)N[C@H](CC(N)=O)C(=O)N2CCC[C@H]2C(=O)N[C@@H](CCC(=O)O)C(=O)N[C@H](CO)C(=O)N[C@@H]([C@@H](C)O)C(=O)N1 (stereo partly shown) [Compound 10, anteiso-C17 bacillomycin D] (cyclo(E[dS]T[X1]N[dY][dN]P))
IC50 ([1]; human, 48 h): 7.2 ± 0.2 µM | IC50 ([2]; human, 48 h): > 10 µM

CC(=O)O[C@H]1C(=O)[C@@]2(C)[C@H]([C@H](OC(=O)c3ccccc3)[C@]3(O)C[C@H](OC(=O)[C@H](O)[C@@H](NC(=O)c4ccccc4)c4ccccc4)C(C)=C1C3(C)C)[C@]1(OC(C)=O)CO[C@@H]1C[C@@H]2O [Taxol, reference compound]
IC50 ([1]; Homo sapiens, MCF7, 48 h, read-out: Cytotoxicity (IC50 Values in µM), MCF7): 0.043 ± 0.003 µM | IC50 ([2]; Homo sapiens, HepG2, 48 h, read-out: Cytotoxicity (IC50 Values in µM), HepG2): 0.075 ± 0.004 µM

bacillomycin D [Compound 5]
inhibition rate, MCF7 ([1]; MCF7, at the concentration of 10 µM, MTT, 48 h, described as no cytotoxicities): below 20% | inhibitory activities against A498 [3]: inhibitory activities | inhibitory activities against A549 [4]: inhibitory activities | inhibitory activities against HCT-15 [5]: inhibitory activities | inhibition rate, HepG2 ([2]; HepG2, at the concentration of 10 µM, MTT, 48 h, described as no cytotoxicities): below 20%

CCCCCCCCCCCCC[C@@H]1CC(=O)N[C@@H](CC(N)=O)C(=O)N[C@H](Cc2ccc(O)cc2)C(=O)N[C@H](CC(N)=O)C(=O)N2CCC[C@H]2C(=O)N[C@@H](CCC(=O)O)C(=O)N[C@H](CO)C(=O)N[C@@H]([C@@H](C)O)C(=O)N1 [Compound 9, C16 bacillomycin D] (cyclo(E[dS]T[Hexadecanoyl(3R-amino)]N[dY][dN]P))
IC50 ([1]; human, 48 h): 3.3 ± 0.1 µM | IC50 ([2]; human, 48 h): 4.9 ± 0.2 µM
